We go through ten molecules from patent US11045455B2, “Azetidine derivative, preparation method therefor, and use thereof” (SICHUAN KELUN-BIOTECH BIOPHARMACEUTICAL CO., LTD., priority 2016, dated 2021).

Data set [1] is described as follows: Pharmacokinetic study in Rhesus monkeys, intravenous (IV) administration. The data set is classed as in vivo. To be noted: male, rhesus monkey, plasma, IV administration at 0.5 mg/kg. Here is the method:
To study the pharmacokinetic characteristics of test compounds, the test compounds were administrated by an intravenous (IV) route to male Rhesus monkeys. The dosage for IV administration was 0.5 mg/kg. Blood was collected at various time points after the IV administration. Plasma samples were analyzed by LC-MS/MS after protein precipitation process with acetonitrile. Pharmacokinetic parameters were calculated with a non-compartmental model by using WinNonlin 6.3 software.

Data set [2] can be described thus: Pharmacokinetic study in rats, intravenous (IV) administration. The format is in vivo. To be noted: male, SD, rat, plasma, IV administration at 1 mg/kg; for AUC(0-t): 0-24 h; for half-life: read-out: T½ (converted). Here is the method:
(§1) Experimental Example 3: Pharmacokinetic Studies
(§2) To study the pharmacokinetic characteristics of test compounds, the test compounds were administrated by intravenous (IV) and gavage (PO) routes to male SD rats. The dosage for IV administration was 1 mg/kg, and that for PO administration was 0.5-5 mg/kg. The vehicle is 10% DMSO: 10% solutol: 80% physiological saline, or 5% DMSO: 5% solutol: 90% physiological saline, or 10% DMSO: 60% PEG: 30% physiological saline. Blood was collected at various time points after administration. Plasma samples were analyzed by LC-MS/MS after protein precipitation process with acetonitrile.

Data set [3] can be described thus: Pharmacokinetic study in rats, gavage (PO) administration. The data set is classed as in vivo. The note with it: male, SD, rat, plasma; for AUC(0-t): po, gavage administration at 5 mg/kg, 0-24 h. Here is the method: as §1, §2
Data set [4] concerns Collagen-Induced Arthritis (CIA) Model in Rats. Briefly: In vivo efficacy in collagen-induced arthritis (CIA) model in rats. Also on record: species or system Lewis rats; Mean arthritis score: scale not given here. Here is the method: Experimental Example 4: In Vivo Efficacy in Collagen-Induced Arthritis (CIA) Model in Rats
A mixed emulsion of bovine type II collagen and incomplete Freund's adjuvant 1:1 was injected at the back and the tail tip (3 sites) in Lewis rats. After 14 days, the paw thickness and paw volume of the rats were measured, and the arthritis development was scored. The day before the administration was set as DO, the animals were grouped based on paw volume, and the test compounds (vehicle: 5% DMSO+5% solutol) were gavage administered once a day for two weeks. The paw thickness and paw volume of the rats were measured, and the arthritis development was scored.

Data set [5] is described as follows: Pharmacokinetic study in Rhesus monkeys, gavage (PO) administration. To be noted: male, rhesus monkey, plasma, PO administration at 1 mg/kg. The data set is classed as in vivo. The method, then: To study the pharmacokinetic characteristics of test compounds, the test compounds were administrated by a gavage (PO) route to male Rhesus monkeys. The dosage for PO administration was 1 mg/kg. Blood was collected at various time points after the PO administration. Plasma samples were analyzed by LC-MS/MS after protein precipitation process with acetonitrile. Pharmacokinetic parameters were calculated with a non-compartmental model by using WinNonlin 6.3 software.

The next data set has as its target JAK2 (Homo sapiens (Human), UniProt O60674). Briefly: JAK2 enzymatic inhibition assay (ADP-Glo luminescence). The data set is classed as biochemical.
A further data set addresses hERG potassium channel (Homo sapiens (Human), UniProt Q12809). Briefly: Predictor hERG Fluorescence Polarization Assay. The format is binding. The note with it: tested at 3, 10 and 30 μM. Here is the method: Experimental Example 2: Safety Test
The effect of test compounds on hERG potassium channel were determined using Predictor™ hERG Fluorescence Polarization Assay at concentrations of 3, 10, and 30 μM.

The target of the next data set is TYK2 (Homo sapiens (Human), UniProt P29597). Briefly: TYK2 enzymatic inhibition assay (LanthaScreen TR-FRET). The data set is classed as biochemical. Here is the method:
(§3) Experimental Example 1: JAK1, JAK2, JAK3 and TYK2 Enzymatic Inhibition Assay
As for the TYK2 enzyme, Tb-anti-pSTAT1 was added, and incubation at room temperature was performed.

A further data set deals with CYP1A2 (Homo sapiens (Human), UniProt P05177). Briefly: CYP450 enzyme test, P450-Glo screening system, CYP1A2. The data set is classed as in vitro ADME. From the text: (§4) CYP450 is the most important enzymatic system in drug metabolism. The enzymes involved in the metabolism interact with a drug, and mainly include CYP1A2, CYP2D6 and CYP3A4. In the CYP450 enzyme test, P450-Glo™ CYP1A2 screening system was employed to determine the inhibitory activity of compounds on CYP1A2 and CYP3A4. The Vivid® CYP2D6 Cyan screening kit was employed to determine the inhibitory activity of test compounds on CYP2D6.

Another data set deals with CYP2D6 (Homo sapiens (Human), UniProt P10635). Put plainly: CYP450 enzyme test, Vivid CYP2D6 Cyan screening kit. The format is in vitro ADME.
From the text: as §4

Another data set has as its target CYP3A4 (Homo sapiens (Human), UniProt P08684). Put plainly: CYP450 enzyme test, P450-Glo screening system, CYP3A4. The format is in vitro ADME.
From the text: as §4

The target of another data set is JAK3 (Homo sapiens (Human), UniProt P52333). Briefly: JAK3 enzymatic inhibition assay (ADP-Glo luminescence). The format is biochemical.
From the text: as §3
A general note: In ADP-Glo the light output rises with the ADP produced.

The next data set deals with JAK1 (Homo sapiens (Human), UniProt P23458). Briefly: JAK1 enzymatic inhibition assay (ADP-Glo luminescence). The data set is classed as biochemical.
[6] abbreviates: D0 (day before administration), 10 mg/kg group.
[7] abbreviates: D11, 10 mg/kg gavage once a day.
[8] abbreviates: D15, 10 mg/kg gavage once a day.

The structures appear in SMILES notation. Where two headings read alike, the source gives them in different places.

JAK2, sequence (O60674 whole entry): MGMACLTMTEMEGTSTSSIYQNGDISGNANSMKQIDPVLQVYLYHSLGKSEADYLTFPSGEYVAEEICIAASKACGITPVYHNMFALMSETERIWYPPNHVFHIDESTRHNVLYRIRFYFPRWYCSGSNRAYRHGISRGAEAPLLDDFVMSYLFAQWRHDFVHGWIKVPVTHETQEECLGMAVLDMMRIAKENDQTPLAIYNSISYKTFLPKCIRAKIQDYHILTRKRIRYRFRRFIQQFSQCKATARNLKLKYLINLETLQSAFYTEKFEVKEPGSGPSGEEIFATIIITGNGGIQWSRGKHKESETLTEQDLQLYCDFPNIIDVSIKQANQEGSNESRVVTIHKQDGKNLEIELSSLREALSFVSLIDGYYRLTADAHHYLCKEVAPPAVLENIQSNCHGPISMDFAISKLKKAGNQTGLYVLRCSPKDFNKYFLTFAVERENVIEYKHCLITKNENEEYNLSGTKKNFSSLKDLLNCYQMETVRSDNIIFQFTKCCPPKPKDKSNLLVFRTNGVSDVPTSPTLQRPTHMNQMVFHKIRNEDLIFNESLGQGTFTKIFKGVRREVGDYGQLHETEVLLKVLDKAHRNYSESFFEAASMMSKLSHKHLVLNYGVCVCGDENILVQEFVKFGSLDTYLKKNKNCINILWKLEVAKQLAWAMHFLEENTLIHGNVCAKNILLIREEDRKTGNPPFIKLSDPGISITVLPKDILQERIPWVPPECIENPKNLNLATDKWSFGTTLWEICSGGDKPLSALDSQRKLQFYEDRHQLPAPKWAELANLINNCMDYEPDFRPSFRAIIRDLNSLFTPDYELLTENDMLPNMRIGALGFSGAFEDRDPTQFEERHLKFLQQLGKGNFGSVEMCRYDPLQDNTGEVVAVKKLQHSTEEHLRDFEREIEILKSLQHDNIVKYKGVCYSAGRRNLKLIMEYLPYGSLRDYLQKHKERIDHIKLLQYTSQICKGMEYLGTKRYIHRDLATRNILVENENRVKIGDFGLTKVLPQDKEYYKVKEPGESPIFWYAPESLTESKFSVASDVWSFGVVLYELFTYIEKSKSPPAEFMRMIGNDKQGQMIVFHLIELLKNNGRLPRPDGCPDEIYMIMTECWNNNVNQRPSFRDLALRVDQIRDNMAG
CYP3A4, sequence (P08684 whole entry): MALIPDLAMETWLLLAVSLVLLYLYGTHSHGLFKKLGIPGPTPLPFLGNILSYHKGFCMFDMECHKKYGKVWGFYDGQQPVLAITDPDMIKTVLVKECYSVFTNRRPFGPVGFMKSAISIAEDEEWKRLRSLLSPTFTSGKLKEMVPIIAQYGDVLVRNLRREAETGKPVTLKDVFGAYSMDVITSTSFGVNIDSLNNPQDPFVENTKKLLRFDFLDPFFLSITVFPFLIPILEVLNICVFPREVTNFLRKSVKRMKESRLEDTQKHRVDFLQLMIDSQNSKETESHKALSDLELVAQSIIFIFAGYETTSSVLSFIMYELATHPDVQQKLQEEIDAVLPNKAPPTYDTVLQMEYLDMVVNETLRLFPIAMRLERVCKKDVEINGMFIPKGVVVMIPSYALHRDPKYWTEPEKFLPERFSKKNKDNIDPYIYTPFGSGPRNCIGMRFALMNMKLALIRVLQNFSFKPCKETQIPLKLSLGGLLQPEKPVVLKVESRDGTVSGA
JAK3, sequence (P52333 whole entry): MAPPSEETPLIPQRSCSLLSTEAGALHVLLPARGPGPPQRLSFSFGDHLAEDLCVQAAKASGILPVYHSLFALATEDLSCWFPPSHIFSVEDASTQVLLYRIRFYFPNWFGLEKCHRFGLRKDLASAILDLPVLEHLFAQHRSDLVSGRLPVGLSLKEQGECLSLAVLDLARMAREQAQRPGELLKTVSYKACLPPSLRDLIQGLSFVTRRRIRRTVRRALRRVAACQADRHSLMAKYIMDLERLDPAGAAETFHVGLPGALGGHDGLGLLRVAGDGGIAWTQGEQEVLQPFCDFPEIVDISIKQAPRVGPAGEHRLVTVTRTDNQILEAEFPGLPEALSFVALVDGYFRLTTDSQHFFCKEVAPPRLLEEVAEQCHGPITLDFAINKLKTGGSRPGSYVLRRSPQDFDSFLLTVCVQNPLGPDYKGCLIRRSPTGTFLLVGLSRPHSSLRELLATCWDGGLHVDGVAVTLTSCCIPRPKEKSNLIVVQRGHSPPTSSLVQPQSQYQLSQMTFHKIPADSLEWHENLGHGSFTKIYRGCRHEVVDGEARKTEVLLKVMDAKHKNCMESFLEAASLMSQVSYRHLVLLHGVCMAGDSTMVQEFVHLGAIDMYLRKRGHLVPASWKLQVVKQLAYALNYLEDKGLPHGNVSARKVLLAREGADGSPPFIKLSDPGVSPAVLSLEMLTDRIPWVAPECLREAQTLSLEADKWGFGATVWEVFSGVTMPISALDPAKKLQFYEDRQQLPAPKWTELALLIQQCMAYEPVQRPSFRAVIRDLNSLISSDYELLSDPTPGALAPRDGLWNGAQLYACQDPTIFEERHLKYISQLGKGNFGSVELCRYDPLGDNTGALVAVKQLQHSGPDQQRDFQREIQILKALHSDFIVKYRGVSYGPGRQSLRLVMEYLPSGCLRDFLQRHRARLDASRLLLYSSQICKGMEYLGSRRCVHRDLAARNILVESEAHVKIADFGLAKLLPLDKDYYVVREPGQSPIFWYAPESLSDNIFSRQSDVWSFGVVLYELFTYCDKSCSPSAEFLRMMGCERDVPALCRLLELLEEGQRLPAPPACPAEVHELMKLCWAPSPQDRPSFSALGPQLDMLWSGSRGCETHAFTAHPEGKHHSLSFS
JAK1, sequence (P23458 whole entry): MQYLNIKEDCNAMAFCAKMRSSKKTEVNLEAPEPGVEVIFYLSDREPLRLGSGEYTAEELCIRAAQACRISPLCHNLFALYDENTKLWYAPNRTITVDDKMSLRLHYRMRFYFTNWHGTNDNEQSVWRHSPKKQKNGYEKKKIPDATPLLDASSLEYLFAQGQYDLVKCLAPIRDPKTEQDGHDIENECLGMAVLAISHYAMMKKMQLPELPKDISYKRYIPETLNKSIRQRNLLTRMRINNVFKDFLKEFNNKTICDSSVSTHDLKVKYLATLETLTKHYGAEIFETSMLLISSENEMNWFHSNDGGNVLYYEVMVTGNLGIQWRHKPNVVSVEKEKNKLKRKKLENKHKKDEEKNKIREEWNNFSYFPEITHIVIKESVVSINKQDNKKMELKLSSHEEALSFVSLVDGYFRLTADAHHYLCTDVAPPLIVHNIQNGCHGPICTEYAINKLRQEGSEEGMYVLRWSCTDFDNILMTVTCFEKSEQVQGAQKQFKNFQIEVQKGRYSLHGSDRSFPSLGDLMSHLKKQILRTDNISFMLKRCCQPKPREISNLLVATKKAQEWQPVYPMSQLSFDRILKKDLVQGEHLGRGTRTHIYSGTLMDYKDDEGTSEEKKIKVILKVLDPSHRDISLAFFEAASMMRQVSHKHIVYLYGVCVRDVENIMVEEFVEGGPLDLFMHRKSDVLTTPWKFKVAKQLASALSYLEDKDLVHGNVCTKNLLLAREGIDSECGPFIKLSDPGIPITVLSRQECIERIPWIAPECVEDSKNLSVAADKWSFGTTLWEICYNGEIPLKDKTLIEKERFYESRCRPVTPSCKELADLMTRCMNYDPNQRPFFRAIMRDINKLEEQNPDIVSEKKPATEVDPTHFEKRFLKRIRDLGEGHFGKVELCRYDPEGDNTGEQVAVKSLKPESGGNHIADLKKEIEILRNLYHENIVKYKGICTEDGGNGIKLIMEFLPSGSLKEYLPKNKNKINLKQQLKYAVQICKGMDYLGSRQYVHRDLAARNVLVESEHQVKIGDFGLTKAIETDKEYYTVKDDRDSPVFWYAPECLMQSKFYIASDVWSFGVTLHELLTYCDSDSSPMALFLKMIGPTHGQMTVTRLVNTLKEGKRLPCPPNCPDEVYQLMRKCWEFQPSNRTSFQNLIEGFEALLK
hERG potassium channel, sequence (Q12809 whole entry): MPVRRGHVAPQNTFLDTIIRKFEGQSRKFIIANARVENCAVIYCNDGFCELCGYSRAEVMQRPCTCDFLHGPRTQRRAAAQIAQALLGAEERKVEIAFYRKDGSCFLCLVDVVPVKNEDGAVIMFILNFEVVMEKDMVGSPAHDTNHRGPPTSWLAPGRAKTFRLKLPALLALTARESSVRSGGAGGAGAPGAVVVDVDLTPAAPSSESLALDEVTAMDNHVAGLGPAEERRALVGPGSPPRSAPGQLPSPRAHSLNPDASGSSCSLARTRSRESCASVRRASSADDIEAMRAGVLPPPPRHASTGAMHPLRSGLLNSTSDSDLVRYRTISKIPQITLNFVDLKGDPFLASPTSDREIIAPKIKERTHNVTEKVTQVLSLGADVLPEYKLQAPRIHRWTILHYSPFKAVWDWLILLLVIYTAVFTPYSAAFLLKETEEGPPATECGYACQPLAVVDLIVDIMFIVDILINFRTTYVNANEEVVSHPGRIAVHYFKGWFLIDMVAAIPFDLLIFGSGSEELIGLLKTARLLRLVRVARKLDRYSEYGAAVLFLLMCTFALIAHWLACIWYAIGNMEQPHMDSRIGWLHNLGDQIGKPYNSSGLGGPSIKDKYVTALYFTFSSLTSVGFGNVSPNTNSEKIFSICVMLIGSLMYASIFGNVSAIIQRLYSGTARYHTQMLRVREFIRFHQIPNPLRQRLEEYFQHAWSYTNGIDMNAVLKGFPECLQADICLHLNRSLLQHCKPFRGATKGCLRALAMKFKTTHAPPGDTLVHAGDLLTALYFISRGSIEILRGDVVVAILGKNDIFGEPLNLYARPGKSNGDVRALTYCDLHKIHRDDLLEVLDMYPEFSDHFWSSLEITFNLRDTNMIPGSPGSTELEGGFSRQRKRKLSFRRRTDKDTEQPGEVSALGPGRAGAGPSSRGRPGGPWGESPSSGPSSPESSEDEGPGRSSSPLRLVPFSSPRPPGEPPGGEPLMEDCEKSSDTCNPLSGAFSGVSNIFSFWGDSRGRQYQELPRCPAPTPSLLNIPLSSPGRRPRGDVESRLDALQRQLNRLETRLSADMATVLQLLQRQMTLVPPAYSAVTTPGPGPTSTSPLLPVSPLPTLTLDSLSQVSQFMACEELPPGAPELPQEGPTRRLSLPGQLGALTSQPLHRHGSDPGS
Experimental for JAK1: (§5) Test Materials • JAK1, JAK2, JAK3 and TYK2 enzymes were purchased from Life Technologies; and substrate GFP-STAT1 was purchased from Life Technologies.
(§6) Test compounds, enzymes, the substrate and ATP were diluted to the desired concentrations with the assay buffer (40 mM Tris-HCl, pH 7.4, 20 mM MgCl2, 0.1% BSA). The former three were added into a multiple well plate, and incubated at room temperature after being mixed homogeneously. ATP was added to initiate the kinase reaction, and incubation at room temperature was performed. ADP-Glo was added, and incubation at room temperature was performed. The kinase detector reagent was then added, and incubation at room temperature was performed. The luminescence intensity of each test group was detected, and the half maximal inhibitory concentration (IC50) value was calculated.
Experimental for JAK2: as §5, §6

Regarding `CCS(=O)(=O)N1CC(CC#N)(n2cc(-c3ncnc4[nH]ccc34)cn2)C1` [Baricitinib, reference compound], the half-life in data set [1] is 1.38 h; in [2], 0.946 h; in data set [3] (PO administration at 0.5-5 mg/kg, read-out: half-life (T1/2) (converted)), 1.58 h; in data set [5] (read-out: T½ (converted)) it was 1.96 h. Further, the area under the curve AUC(0-t) (as a rule, exposure summed from dosing to a finite time, without extrapolation to infinity) in data set [2] turned out to be 505 ng·h/mL; in data set [3], 3050 ng·h/mL; in data set [5] (0-24 h), 994 ng·h/mL. For the same molecule, the bioavailability (as a rule, dose-corrected exposure relative to a reference, in per cent) in [3] (PO administration at 0.5-5 mg/kg, read-out: bioavailability (F %)) was 55%; in data set [5] it was 26.3%. In addition, the Mean arthritis score in data set [4] (setting [6]) worked out at 3.00; in [4] (D4, 10 mg/kg gavage once a day), 2.25; in [4] (D7, 10 mg/kg gavage once a day), 1.38; in [4] (setting [7]), 1.75; in [4] (setting [8]) it was 1.88. The “Mean paw thickness (mm)” value in data set [4] (setting [6]) is listed as 7.17 mm; in data set [4] (D4, 10 mg/kg gavage once a day) it was 6.67 mm; in data set [4] (D7, 10 mg/kg gavage once a day), 6.47 mm; in data set [4] (setting [7]), 6.36 mm; in data set [4] (setting [8]) it was 6.21 mm. For the same molecule, the “Mean paw volume” value in data set [4] (setting [6]) was determined as 1.71 mL; in data set [4] (D4, 10 mg/kg gavage once a day), 1.55 mL; in [4] (D7, 10 mg/kg gavage once a day) it was 1.47 mL; in data set [4] (setting [7]), 1.48 mL; in data set [4] (setting [8]), 1.59 mL.

On to `CCS(=O)(=O)N1CC(CC#N)(n2cc(-c3c(C#N)cnc4[nH]ccc34)cn2)C1` [Compound 5, 4-(1-(3-(cyanomethyl)-1-(ethylsulfonyl)azetidin-3-yl)-1H-pyrazol-4-yl)-1H-pyrrolo[2,3-b]pyridine-5-carbonitrile], for which the IC50 (usually the concentration at which inhibition is half-maximal) is 1.49 nM against JAK2; > 30000 nM at hERG potassium channel; 27 nM at TYK2; > 10 µM against CYP1A2 (human); > 10 µM against CYP2D6; > 10 µM against CYP3A4. Moreover, the IC50 on JAK3 is 33.8 nM. For the same molecule, the AUC(0-t) stood at 834 ng·h/mL in [2] and 3150 ng·h/mL in data set [3]. Also, the half-life in data set [2] was 0.997 h.

`CS(=O)(=O)N1CC(CC#N)(n2cc(-c3ccnc4[nH]ccc34)cn2)C1` [Compound 19, 2-(3-(4-(1H-pyrrolo[2,3-b]pyridin-4-yl)-1H-pyrazol-1-yl)-1-(methylsulfonyl)azetidin-3-yl)acetonitrile]: the concentration for half-maximal inhibition (IC50) at hERG potassium channel is > 30000 nM; against CYP1A2 (human), > 10 µM; against CYP2D6 it was > 10 µM; against CYP3A4, > 10 µM; at JAK1, 0.69 nM; against JAK3, 10.3 nM. Further, the exposure AUC(0-t) came out at 1390 ng·h/mL in data set [2] and 5030 ng·h/mL in [3]. Also, the half-life in data set [2] is 7.1 h.

With `CC(C)CS(=O)(=O)N1CC(CC#N)(n2cc(-c3ccnc4[nH]ccc34)cn2)C1` [Compound 25, 2-(3-(4-(1H-pyrrolo[2,3-b]pyridin-4-yl)-1H-pyrazol-1-yl)-1-(isobutylsulfonyl)azetidin-3-yl)acetonitrile], the 50% inhibitory concentration (IC50) against JAK2 is 0.83 nM; at hERG potassium channel, > 30000 nM; against TYK2 it was > 30 nM; at CYP1A2 (read-out: IC50 (μM) CYP1A2), > 10 µM; at CYP2D6 it was > 10 µM; at CYP3A4, > 10 µM. Moreover, the IC50 on JAK1 is 2.29 nM; at JAK3 it was > 30 nM.

`N#CCC1(n2cc(-c3ccnc4[nH]ccc34)cn2)CN(S(=O)(=O)CCC(F)(F)F)C1` [Compound 30, 2-(3-(4-(1H-pyrrolo[2,3-b]pyridin-4-yl)-1H-pyrazol-1-yl)-1-((3,3,3-trifluoropropyl)sulfonyl)azetidin-3-yl)acetonitrile]: the IC50 against JAK2 was 2.16 nM; on hERG potassium channel it was > 30000 nM; against TYK2 it was 58.2 nM; against JAK1, 2.22 nM; at JAK3, 36.5 nM. For the same molecule, the AUC(0-t) in data set [2] is 3170 ng·h/mL; in data set [3], 32200 ng·h/mL. Moreover, the half-life in data set [2] was 1.5 h.

Turning to `CCS(=O)(=O)N1CC(CC#N)(n2cc(-c3ncnc4[nH]ccc34)cc2C#N)C1` [Compound 39, 1-(3-(cyanomethyl)-1-(ethylsulfonyl)azetidin-3-yl)-4-(7H-pyrrolo[2,3-d]pyrimidin-4-yl)-1H-pyrrole-2-carbonitrile], the IC50 against JAK2 was 0.69 nM; on hERG potassium channel it was > 30000 nM; against CYP1A2 (human), > 10 µM; on CYP2D6, > 10 µM; at CYP3A4, > 10 µM; on JAK3, 10 to 30 nM. The half-life in data set [2] is 1.67 h.

In the case of `CC(C)S(=O)(=O)N1CC(CC#N)(n2cc(-c3c(C#N)cnc4[nH]ccc34)cn2)C1` [Compound 43, 4-(1-(3-(cyanomethyl)-1-(isopropylsulfonyl)azetidin-3-yl)-1H-pyrazol-4-yl)-1H-pyrrolo[2,3-b]pyridine-5-carbonitrile], the concentration for half-maximal inhibition (IC50) against JAK2 was 2.54 nM; on hERG potassium channel, > 30000 nM; against TYK2, > 30 nM; at CYP1A2 (read-out: IC50 (μM) CYP1A2), > 10 µM; on CYP2D6 it was > 10 µM; on CYP3A4, > 10 µM. For the same molecule, the IC50 against JAK1 is 0.55 nM; against JAK3 it was 10 to 30 nM.

With `CCS(=O)(=O)N1CC(CC#N)(n2cc(-c3ccnc4[nH]ccc34)c(Cl)n2)C1` [Compound 48, 2-(3-(3-chloro-4-(1H-pyrrolo[2,3-b]pyridin-4-yl)-1H-pyrazol-1-yl)-1-(ethylsulfonyl)azetidin-3-yl)acetonitrile], the IC50 was 1.4 nM at JAK2; > 30000 nM on hERG potassium channel; > 10 µM on CYP1A2 (read-out: IC50 (μM) CYP1A2); > 10 µM against CYP2D6; > 10 µM at CYP3A4; 5.66 nM on JAK1.

Regarding `CCS(=O)(=O)N1CC(CC#N)(n2cc(-c3c(Cl)cnc4[nH]ccc34)cn2)C1` [Compound 50, 2-(3-(4-(5-chloro-1H-pyrrolo[2,3-b]pyridin-4-yl)-1H-pyrazol-1-yl)-1-(ethylsulfonyl)azetidin-3-yl)acetonitrile], the IC50 is 0.67 nM at JAK2; > 30000 nM on hERG potassium channel; > 10 µM at CYP1A2 (read-out: IC50 (μM) CYP1A2); > 10 µM against CYP2D6; > 10 µM against CYP3A4.

As to `CCS(=O)(=O)N1CC(CC#N)(n2cc(-c3c(F)cnc4[nH]ccc34)cn2)C1` [Compound 52, 2-(1-(ethylsulfonyl)-3-(4-(5-fluoro-1H-pyrrolo[2,3-b]pyridin-4-yl)-1H-pyrazol-1-yl)azetidin-3-yl)acetonitrile], the concentration for half-maximal inhibition (IC50) was 0.4 nM against JAK2; > 30000 nM at hERG potassium channel; > 10 µM at CYP1A2 (read-out: IC50 (μM) CYP1A2); > 10 µM at CYP2D6; > 10 µM against CYP3A4.
